The term Kd denotes a measure of binding affinity in units of concentration. Higher therefore signals a looser complex.

This note sets out measurements from ChEMBL document CHEMBL1131527, “Estradiol-mimetic probes. Preparation of 17 alpha-(6-aminohexynyl)estradiol biotin, fluorescein and acridinium conjugates” (Bioorg Med Chem Lett, 1998).

The nature of this experiment: Equilibrium dissociation constant of the compound. In kind it is ADME.

For `C[C@]12CC[C@@H]3c4ccc(O)cc4CC[C@H]3[C@@H]1CC[C@@]2(O)C#CCCCCNC(=O)CCCCC1SC[C@@H]2NC(=O)N[C@H]12` (stereo partly drawn), the Kd worked out at 141 nM.
In the case of `Cc1ccc(S(=O)(=O)N(CCCC(=O)NCCCCC#C[C@]2(O)CC[C@H]3[C@@H]4CCc5cc(O)ccc5[C@H]4CC[C@@]32C)C(=O)c2c3ccccc3[n+](CCCS(=O)(=O)[O-])c3ccccc23)cc1` it was 198 nM.
As for `C[C@]12CC[C@@H]3c4ccc(O)cc4CC[C@H]3[C@@H]1CC[C@@]2(O)C#CCCCCNC(=O)c1ccc2c(c1)C(=O)OC21c2ccc(O)cc2Oc2cc(O)ccc21`, binding was put at a Kd of 97.3 nM.
